In ChEMBL document CHEMBL5154653, “The discovery of 1, 3-diamino-7H-pyrrol[3, 2-f]quinazoline compounds as potent antimicrobial antifolates” (Eur J Med Chem, 2022):
Calls of active or inactive are those of the source. No cut-off for these calls is given here.

Assays:
Escherichia coli [1] = test: Inhibition of Escherichia coli C-terminal hexahistidine tagged DHFR at 5 uM incubated for 5 mins in presence of NADPH by measuring oxidation of NADPH to NADP+
Escherichia coli [2] = test: Antibacterial activity against Escherichia coli ATCC 25922 assessed as reduction in microbial growth after 16 to 18 hrs by microbroth dilution method; type: functional; conditions: time 16-18 hrs
Klebsiella pneumoniae [3] = test: Antibacterial activity against Klebsiella pneumoniae ATCC 700603 assessed as reduction in microbial growth after 16 to 18 hrs by microbroth dilution method; type: functional; conditions: time 16-18 hrs
Acinetobacter baumannii [4] = test: Antibacterial activity against Acinetobacter baumannii ATCC 19606 assessed as reduction in microbial growth after 16 to 18 hrs by microbroth dilution method; type: functional; conditions: time 16-18 hrs
[5] = Inhibition of Escherichia coli C-terminal hexahistidine tagged DHFR incubated for 5 mins in presence of NADPH by measuring oxidation of NADPH to NADP+
Escherichia coli [6] = test: Binding affinity to Escherichia coli C-terminal hexahistidine tagged DHFR assessed as change in enthalpy at 0.2 mM by isothermal titration calorimetry method
Escherichia coli [7] = test: Binding affinity to Escherichia coli C-terminal hexahistidine tagged DHFR assessed as change in entropy at 0.2 mM by isothermal titration calorimetry method
[8] = Binding affinity to Escherichia coli C-terminal hexahistidine tagged DHFR assessed as dissociation constant by isothermal titration calorimetry method
Escherichia coli [9] = test: Binding affinity to Escherichia coli C-terminal hexahistidine tagged DHFR assessed as change in gibbs free energy at 0.2 mM by isothermal titration calorimetry method
Acinetobacter baumannii [10] = test: Antibacterial activity against multi drug resistant Acinetobacter baumannii CCPM(A)-100902 assessed as reduction in microbial growth after 16 to 18 hrs by microbroth dilution method; type: functional; conditions: time 16-18 hrs
Acinetobacter baumannii [11] = test: Antibacterial activity against multi drug resistant Acinetobacter baumannii CCPM(A)-100903 assessed as reduction in microbial growth after 16 to 18 hrs by microbroth dilution method; type: functional; conditions: time 16-18 hrs
Acinetobacter baumannii [12] = test: Antibacterial activity against multi drug resistant Acinetobacter baumannii CCPM(A)-1100708 assessed as reduction in microbial growth after 16 to 18 hrs by microbroth dilution method; type: functional; conditions: time 16-18 hrs
Acinetobacter baumannii [13] = test: Antibacterial activity against Acinetobacter baumannii CCPM(A)-100946 assessed as reduction in microbial growth after 16 to 18 hrs by microbroth dilution method; type: functional; conditions: time 16-18 hrs
Acinetobacter baumannii [14] = test: Antibacterial activity against Acinetobacter baumannii CCPM(A)-100947 assessed as reduction in microbial growth after 16 to 18 hrs by microbroth dilution method; type: functional; conditions: time 16-18 hrs
Klebsiella pneumoniae [15] = test: Antibacterial activity against ESBL-producing Klebsiella pneumoniae CCPM(A)-081514 assessed as reduction in microbial growth after 16 to 18 hrs by microbroth dilution method; type: functional; conditions: time 16-18 hrs
Klebsiella pneumoniae [16] = test: Antibacterial activity against ESBL-producing Klebsiella pneumoniae CCPM(A)-081568 assessed as reduction in microbial growth after 16 to 18 hrs by microbroth dilution method; type: functional; conditions: time 16-18 hrs
Klebsiella pneumoniae [17] = test: Antibacterial activity against Klebsiella pneumoniae CCPM(A)-081018 assessed as reduction in microbial growth after 16 to 18 hrs by microbroth dilution method; type: functional; conditions: time 16-18 hrs
Escherichia coli [18] = test: Antibacterial activity against Escherichia coli CCPM(A)-0715118 assessed as reduction in microbial growth after 16 to 18 hrs by microbroth dilution method; type: functional; conditions: time 16-18 hrs
Escherichia coli [19] = test: Antibacterial activity against ESBL-producing Escherichia coli CCPM(A)-071030 assessed as reduction in microbial growth after 16 to 18 hrs by microbroth dilution method; type: functional; conditions: time 16-18 hrs
Escherichia coli [20] = test: Antibacterial activity against ESBL-producing Escherichia coli CCPM(A)-0715117 assessed as reduction in microbial growth after 16 to 18 hrs by microbroth dilution method; type: functional; conditions: time 16-18 hrs
Escherichia coli [21] = test: Antibacterial activity against ESBL-producing Escherichia coli CCPM(A)-0715142 assessed as reduction in microbial growth after 16 to 18 hrs by microbroth dilution method; type: functional; conditions: time 16-18 hrs
Staphylococcus aureus [22] = test: Antibacterial activity against Staphylococcus aureus ATCC 29213 assessed as reduction in microbial growth after 16 to 18 hrs by microbroth dilution method; type: functional; conditions: time 16-18 hrs
Staphylococcus aureus [23] = test: Antibacterial activity against methicillin-resistant Staphylococcus aureus ATCC 43300 assessed as reduction in microbial growth after 16 to 18 hrs by microbroth dilution method; type: functional; conditions: time 16-18 hrs
Enterococcus faecium = test: Antibacterial activity against vancomycin-resistant Enterococcus faecium ATCC 51559 assessed as reduction in microbial growth after 16 to 18 hrs by microbroth dilution method; type: functional; conditions: time 16-18 hrs
Escherichia coli [24] = test: Antibacterial activity against Escherichia coli ATCC 25922 overexpressing DHFR assessed as reduction in microbial growth after 16 to 18 hrs by microbroth dilution method; type: functional; conditions: time 16-18 hrs
Thymidylate synthase = Thymidylate synthase (Escherichia coli K-12, UniProt P0A884); test: Inhibition of Escherichia coli N-terminal hexahstidine-tagged TS by steady-state kinetic analysis
[25] = biological target: Thymidylate synthase (Escherichia coli K-12) (UniProt P0A884); test: Binding affinity to Escherichia coli […] hexahistidine-tagged TS at 20 uM by biolayer interferometry assay
Klebsiella pneumoniae [26] = test: Antibacterial activity against ESBL-producing Klebsiella pneumoniae ATCC 700603 assessed as reduction in microbial growth after 16 to 18 hrs by microbroth dilution method; type: functional; conditions: time 16-18 hrs
Escherichia coli [27] = test: Antibacterial activity against Escherichia coli ATCC 25922 assessed as blockage of folate pathway after 16 to 18 hrs in presence of thymine by microbroth dilution method; type: functional; conditions: time 16-18 hrs
Escherichia coli [28] = test: Antibacterial activity against Escherichia coli ATCC 25922 overexpressing DHFR assessed as fold increase in MIC after 16 to 18 hrs by microbroth dilution method; type: functional; conditions: time 16-18 hrs
Escherichia coli [29] = test: Antibacterial activity against Escherichia coli ATCC 25922 assessed as blockage of folate pathway after 16 to 18 hrs in presence of thymine by measuring fold increase in MIC by microbroth dilution method; type: functional; conditions: time 16-18 hrs
[30] = biological target: Thymidylate synthase (Escherichia coli K-12) (UniProt P0A884); test: Inhibition of Escherichia coli N-terminal hexahstidine-tagged TS at 500 uM by steady-state kinetic analysis
Escherichia coli [31] = test: Bactericidal activity against Escherichia coli ATCC 25922 at 0.5 to 8 times MIC by counting bacterial colonies upto 24 hrs time-kill assay; type: functional, organism-based; conditions: DDE = dose-dependent effect
Escherichia coli [32] = test: Bactericidal activity against Escherichia coli ATCC 25922 assessed as reductions in colony forming unit at 8 times MIC measured for 24 hrs by time-kill assay; type: functional
Escherichia coli [33] = test: Bactericidal activity against Escherichia coli ATCC 25922 assessed as suppression of regrowth of colonies at 4 to 8 times MIC measured for 24 hrs by time-kill assay; type: functional, organism-based
Escherichia coli [34] = test: Bactericidal activity against Escherichia coli ATCC 25922 at 30 pg/ml measured for 24 hrs in presence of SMZ by time-kill assay; type: functional, organism-based
Klebsiella pneumoniae [35] = test: Bactericidal activity against Klebsiella pneumoniae CCPM(A)-081514 at 0.5 ug/ml measured for 24 hrs in presence of SMZ by time-kill assay; type: functional, organism-based; conditions: dose 0.5 µg/ml
Escherichia coli [36] = test: Synergistic antibacterial activity against Escherichia coli ATCC 25922 assessed as fractional inhibitory concentration index at 30 pg/ml measured for 24 hrs in presence of SMZ by microdilution checkerboard assay; type: functional
Klebsiella pneumoniae [37] = test: Synergistic antibacterial activity against Klebsiella pneumoniae CCPM(A)-081514 assessed as fractional inhibitory concentration index at 0.5 ug/ml measured for 24 hrs in presence of SMZ by microdilution checkerboard assay; type: functional; conditions: dose 0.5 µg/ml
Escherichia coli [38] = test: In vivo Antibacterial activity against Escherichia coli ATCC 25922 in septicemia ICR mouse model assessed as increase in mouse survival time administered iv measured after 14 hrs; type: functional, organism-based; conditions: dose 7.5-15 mg/kg, DDE = dose-dependent effect
Escherichia coli [39] = test: In vivo Antibacterial activity against Escherichia coli ATCC 25922 in septicemia ICR mouse model assessed as increase in mouse survival time at 15 mg/kg,iv measured after 14 hrs; type: functional
Escherichia coli [40] = test: In vivo Antibacterial activity against Escherichia coli ATCC 25922 in septicemia ICR mouse model assessed as reduction in bacterial load at 50 mg/kg, iv measured after 2 to 4 hrs; type: functional; conditions: time 2-4 hrs
Escherichia coli [41] = test: Potency index ratio of IC50 for TMP to IC50 for test compound for inhibition of Escherichia coli C-terminal hexahistidine tagged DHFR
Escherichia coli [42] = test: Bactericidal activity against Escherichia coli ATCC 25922 at 0.5 to 8 times MIC by counting bacterial colonies time-kill assay; type: functional, organism-based; conditions: time <= 24.0 hrs, TDE = time-dependent effect
Escherichia coli [43] = test: In vivo Antibacterial activity against Escherichia coli ATCC 25922 in septicemia ICR mouse model assessed as increase in mouse survival rate administered iv measured […]; type: functional, organism-based; conditions: dose 7.5-15 mg/kg, DDE = dose-dependent effect
[44] = biological target: Thymidylate synthase (Escherichia coli K-12) (UniProt P0A884); test: Binding affinity to Escherichia coli N-terminal hexahistidine tagged TS assessed as change in gibbs free energy at 0.2 mM by isothermal titration calorimetry method
[45] = biological target: Thymidylate synthase (Escherichia coli K-12) (UniProt P0A884); test: Binding affinity to Escherichia coli N-terminal hexahistidine tagged TS assessed as change in entropy at 0.2 mM by isothermal titration calorimetry method

Chain of Thymidylate synthase (Escherichia coli K-12) (P0A884 whole entry, looked up): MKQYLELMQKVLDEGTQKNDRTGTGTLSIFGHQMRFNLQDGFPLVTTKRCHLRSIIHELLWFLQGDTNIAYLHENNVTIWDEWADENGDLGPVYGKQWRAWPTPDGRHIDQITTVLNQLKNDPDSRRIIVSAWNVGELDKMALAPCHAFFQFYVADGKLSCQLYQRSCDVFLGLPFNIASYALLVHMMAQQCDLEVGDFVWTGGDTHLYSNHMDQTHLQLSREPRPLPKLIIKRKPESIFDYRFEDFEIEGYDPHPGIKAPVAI
Chain of Thymidylate synthase (P0A884 whole entry): as the sequence (P0A884 whole entry, looked up) above

Nc1nc(N)c2c(ccc3c2ccn3Cc2cccs2)n1
inhibition (Escherichia coli [1]): 92.8%
MIC (Escherichia coli [2]): 0.002 µg/mL
MIC (Klebsiella pneumoniae [3]): 1 µg/mL
MIC (Acinetobacter baumannii [4]): 1 µg/mL
IC50 [5]: 15.9 nM
deltaH (Escherichia coli [6]): -18.5 kcal/mol
deltaS (Escherichia coli [7]): -24.1 cal/mol/deg
Kd [8]: 4.85 nM
deltaG (Escherichia coli [9]): -11.3 kcal/mol
MIC (Acinetobacter baumannii [10]): 0.25 µg/mL
MIC (Acinetobacter baumannii [11]): 8 µg/mL
MIC (Acinetobacter baumannii [12]): 8 µg/mL
MIC (Acinetobacter baumannii [13]): 8 µg/mL
MIC (Acinetobacter baumannii [14]): 0.5 µg/mL
MIC (Klebsiella pneumoniae [15]): 0.06 µg/mL
MIC (Klebsiella pneumoniae [16]): 0.002 µg/mL
MIC (Klebsiella pneumoniae [17]): 16 µg/mL
MIC (Escherichia coli [18]): 16 µg/mL
MIC (Escherichia coli [19]): 0.002 µg/mL
MIC (Escherichia coli [20]): 0.002 µg/mL
MIC (Escherichia coli [21]): 0.002 µg/mL
MIC (Staphylococcus aureus [22]): 0.03 µg/mL
MIC (Staphylococcus aureus [23]): 0.25 µg/mL
MIC (Enterococcus faecium): 0.03 µg/mL
MIC (Escherichia coli [24]): 8 µg/mL
IC50 (Thymidylate synthase): 11400 nM
Activity [25]: Active
MIC (Klebsiella pneumoniae [26]): ≤ 0.25 µg/mL
MIC (Escherichia coli [27]): 16 µg/mL
fold change (FC) (Escherichia coli [28]): 4000
fold change (FC) (Escherichia coli [29]): 8000
inhibition [30]: 50%

Nc1nc(N)c2c(ccc3c2ccn3Cc2nnc(-c3ccc(C(F)(F)F)cc3)o2)n1
inhibition (Escherichia coli [1]): 13.3%
MIC (Escherichia coli [2]): 16 µg/mL
MIC (Klebsiella pneumoniae [3]): 32 µg/mL
MIC (Acinetobacter baumannii [4]): 16 µg/mL

Nc1nc(N)c2c(ccc3c2ccn3Cc2ccccc2F)n1
inhibition (Escherichia coli [1]): 76.2%
MIC (Escherichia coli [2]): 0.002 µg/mL
MIC (Klebsiella pneumoniae [3]): 1 µg/mL
MIC (Acinetobacter baumannii [4]): 1 µg/mL
IC50 [5]: 2.36 nM
deltaH (Escherichia coli [6]): -20.4 kcal/mol
TdeltaS (Escherichia coli [7]): -19.4 kcal/mol
Kd [8]: 1.57 nM
deltaG (Escherichia coli [9]): -9.14 kcal/mol
MIC (Acinetobacter baumannii [10]): 0.03 µg/mL
MIC (Acinetobacter baumannii [11]): 8 µg/mL
MIC (Acinetobacter baumannii [12]): 8 µg/mL
MIC (Acinetobacter baumannii [13]): 0.06 µg/mL
MIC (Acinetobacter baumannii [14]): 0.125 µg/mL
MIC (Klebsiella pneumoniae [15]): 2 µg/mL
MIC (Klebsiella pneumoniae [16]): 0.03 µg/mL
MIC (Klebsiella pneumoniae [17]): 16 µg/mL
MIC (Escherichia coli [18]): 16 µg/mL
MIC (Escherichia coli [19]): 0.06 µg/mL
MIC (Escherichia coli [20]): 0.002 µg/mL
MIC (Escherichia coli [21]): 0.002 µg/mL
MIC (Staphylococcus aureus [22]): 0.03 µg/mL
MIC (Staphylococcus aureus [23]): 0.5 µg/mL
MIC (Enterococcus faecium): 0.03 µg/mL
MIC (Escherichia coli [24]): 8 µg/mL
Activity (Escherichia coli [31]): Dde
Activity (Escherichia coli [32]): 3 log10CFU/ml
Activity (Escherichia coli [33]): Active
Activity (Escherichia coli [34]): Active
Activity (Klebsiella pneumoniae [35]): Active
fractional inhibitory concentration index (FICI) (Escherichia coli [36]): 0.02
fractional inhibitory concentration index (FICI) (Klebsiella pneumoniae [37]): 0.07
Activity (Escherichia coli [38]): Dde
Activity (Escherichia coli [39]): 50%
Activity (Escherichia coli [40]): 100 CFU/ml
IC50 (Thymidylate synthase): 11200 nM
Activity [25]: Active
MIC (Klebsiella pneumoniae [26]): 1 µg/mL
MIC (Escherichia coli [27]): 8 µg/mL
Ratio IC50 (Escherichia coli [41]): 20
fold change (FC) (Escherichia coli [29]): 4000
Activity (Escherichia coli [42]): Tde
Activity (Escherichia coli [43]): Dde
deltaG [44]: -5.82 kcal/mol
TdeltaS [45]: -20.9 kcal/mol
inhibition [30]: 50%
